The source made the active and inactive calls. No cut-off for these calls is given here.
Assays:
MCF-12A = assay: Induction of apoptosis in human MCF12A cells assessed as increase in cleaved PARP expression at 20 uM after 12 hrs by immunoblot analysis; type: cell-based
A549 [1] = assay: Growth inhibition of human A549 cells assessed as cell viability at 10 uM after 24 hrs by CCK8 assay relative to control; type: functional; conditions: A549, 24 h, read-out: Activity
A549 [2] = assay: Induction of ER stress-activated unfolded protein response pathway in human A549 cells assessed as increase in IRE1alpha-mediated splicing of XBP1 mRNA by measuring increase in 540-base pair fragments at 20 uM within 3 hrs by RT-PCR analysis; type: functional, cell-based
A549 [3] = assay: Induction of ER stress-activated unfolded protein response pathway in human A549 cells assessed as accumulation of GRP78 protein level at 20 uM after 12 hrs by immunoblot analysis; type: functional, cell-based
A549 [4] = assay: Induction of apoptosis in human A549 cells assessed as disruption of microtubule organization at 20 uM after 18 hrs by Alexa Fluor-488/Hoechst 33258 staining based fluorescence microscopic method; type: functional, cell-based
A549 [5] = assay: Induction of ER stress-activated unfolded protein response pathway-mediated apoptosis in human A549 cells assessed as increase in cleaved PARP expression at 20 uM pre-treated with stress inhibitor 4-PBA before compound addition by immunoblot analysis; type: functional, cell-based
A549 [6] = assay: Induction of apoptosis in human A549 cells assessed as necrotic cells at 20 uM after 24 hrs by Annexn V-FITC/propidium iodide staining based flow cytometry (reference value: 10%); type: functional
A549 [7] = assay: Cell cycle arrest in human A549 cells assessed as accumulation at G2/M phase at 20 uM after 24 hrs by propidium iodide staining based flow cytometry (reference value: 14.8 to 15%); type: functional
A549 [8] = assay: Induction of apoptosis in human A549 cells assessed as early apoptotic cells at 20 uM after 24 hrs by Annexn V-FITC/propidium iodide staining based flow cytometry (reference value: 5%); type: functional
A549 [9] = assay: Induction of ER stress-activated unfolded protein response pathway in human A549 cells assessed as increase in IRE1alpha-mediated splicing of XBP1 mRNA by measuring increase in 540-base pair fragments at 20 uM after 24 hrs by RT-PCR analysis; type: functional, cell-based
A549 [10] = assay: Cell cycle arrest in human A549 cells assessed as accumulation at S phase at 20 uM after 24 hrs by propidium iodide staining based flow cytometry (reference value: 25.6 to 26%); type: functional
A549 [11] = assay: Anticlonogenic activity against human A549 cells at 20 uM after 7 days by crystal violet staining based assay; type: functional, cell-based
A549 [12] = assay: Induction of ER stress-activated unfolded protein response pathway in human A549 cells assessed as increase in IRE1alpha-mediated splicing of XBP1 by measuring increase in XBP1 (56 kDa) level at 20 uM after 6 to 12 hrs by immunoblot analysis; type: functional, cell-based
NCI-H460 = assay: Anticlonogenic activity against human NCI-H460 cells at 20 uM after 7 days by crystal violet staining based assay; type: functional, cell-based
A549 [13] = assay: Cell cycle arrest in human A549 cells assessed as accumulation at sub-G1 phase at 20 uM after 24 hrs by propidium iodide staining based flow cytometry (reference value: 2 to 2.3%); type: functional
MDA-MB-231 = assay: Induction of apoptosis in human MDA-MB-231 cells assessed as increase in cleaved PARP expression at 20 uM after 12 hrs by immunoblot analysis; type: functional, cell-based
A549 [14] = assay: Induction of apoptosis in human A549 cells assessed as increase in cleaved PARP expression at 20 uM after 12 hrs by immunoblot analysis; type: functional, cell-based
A549 [15] = assay: Induction of apoptosis in human A549 cells assessed as increase in cleaved caspase-7 expression at 20 uM pre-treated with pan-caspase inhibitor zVAD-FMK fopr 30 mins before compound incubation for 12 hrs by immunoblot analysis; type: functional, cell-based
A549 [16] = assay: Growth inhibition of human A549 cells assessed as cell viability at 5 uM after 24 hrs by CCK8 assay relative to control; type: functional; conditions: A549, 24 h, read-out: Activity
A549 [17] = assay: Induction of ER stress-activated unfolded protein response pathway in human A549 cells assessed as increase in CHOP expression at 20 uM after 6 to 12 hrs by immunoblot analysis; type: functional, cell-based
A549 [18] = assay: Induction of apoptosis in human A549 cells assessed as nuclear condensation and fragmentation at 20 uM after 18 hrs by Alexa Fluor-488/Hoechst 33258 staining based fluorescence microscopic method; type: functional, cell-based
NCI-H1299 = assay: Anticlonogenic activity against human NCI-H1299 cells at 20 uM after 7 days by crystal violet staining based assay; type: functional, cell-based
[19] = molecular target: T1, Eukaryotic translation initiation factor 2-alpha kinase 3 (Homo sapiens) (UniProt Q9NZJ5); assay: Induction of ER stress-activated unfolded protein response pathway in human A549 cells assessed as increase in PERK phosphorylation at Thr981 residue at 20 uM up to 6 hrs by immunoblot analysis; type: cell-based
T1 sequence (whole entry): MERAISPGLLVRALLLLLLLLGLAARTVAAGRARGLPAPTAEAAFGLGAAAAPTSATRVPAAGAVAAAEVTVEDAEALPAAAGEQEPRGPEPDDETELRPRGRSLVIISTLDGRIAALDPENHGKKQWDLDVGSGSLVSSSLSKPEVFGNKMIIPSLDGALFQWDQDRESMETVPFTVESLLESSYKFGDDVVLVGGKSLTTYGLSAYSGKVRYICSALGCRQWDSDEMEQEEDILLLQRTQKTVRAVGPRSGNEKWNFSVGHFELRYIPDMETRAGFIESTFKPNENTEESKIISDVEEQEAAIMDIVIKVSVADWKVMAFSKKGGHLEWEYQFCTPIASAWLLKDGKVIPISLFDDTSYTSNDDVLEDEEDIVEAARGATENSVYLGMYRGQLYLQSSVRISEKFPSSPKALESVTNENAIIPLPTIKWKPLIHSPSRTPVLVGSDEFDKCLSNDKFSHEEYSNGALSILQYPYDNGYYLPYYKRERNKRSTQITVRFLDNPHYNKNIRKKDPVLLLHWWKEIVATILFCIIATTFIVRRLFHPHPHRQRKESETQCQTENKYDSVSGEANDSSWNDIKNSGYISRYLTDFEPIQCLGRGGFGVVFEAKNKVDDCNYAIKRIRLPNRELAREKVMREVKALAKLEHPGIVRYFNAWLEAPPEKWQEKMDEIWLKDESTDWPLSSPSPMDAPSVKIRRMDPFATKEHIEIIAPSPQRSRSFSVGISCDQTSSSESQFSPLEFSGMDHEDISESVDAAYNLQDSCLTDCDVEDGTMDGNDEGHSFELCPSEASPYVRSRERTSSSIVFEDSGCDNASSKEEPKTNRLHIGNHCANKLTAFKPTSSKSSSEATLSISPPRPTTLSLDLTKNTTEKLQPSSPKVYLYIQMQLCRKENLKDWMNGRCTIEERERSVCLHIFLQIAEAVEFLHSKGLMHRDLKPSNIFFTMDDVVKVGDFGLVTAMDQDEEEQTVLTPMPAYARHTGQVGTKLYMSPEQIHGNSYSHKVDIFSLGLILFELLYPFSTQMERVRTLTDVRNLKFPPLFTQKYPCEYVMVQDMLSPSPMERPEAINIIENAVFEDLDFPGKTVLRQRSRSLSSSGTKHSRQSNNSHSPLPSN

A549 [20] = assay: Induction of apoptosis in human A549 cells assessed as increase in cleaved caspase-9 expression at 20 uM after 12 hrs by immunoblot analysis; type: functional, cell-based
A549 [21] = assay: Induction of ER stress-activated unfolded protein response pathway in human A549 cells assessed as increase in Bim expression at 20 uM after 12 hrs by immunoblot analysis; type: functional, cell-based
A549 [22] = assay: Induction of ER stress-activated unfolded protein response pathway in human A549 cells assessed as increase in IRE1alpha-mediated splicing of XBP1 mRNA by measuring increase in 540-base pair fragments at 20 uM after 12 hrs by RT-PCR analysis; type: functional, cell-based
A549 [23] = assay: Induction of apoptosis in human A549 cells assessed as live cells at 20 uM after 24 hrs by Annexn V-FITC/propidium iodide staining based flow cytometry (reference value: 83%); type: functional
A549 [24] = assay: Induction of ER stress-activated unfolded protein response pathway in human A549 cells assessed as increase in ATF4 expression at 20 uM after 6 hrs by immunoblot analysis; type: functional, cell-based
A549 [25] = assay: Induction of apoptosis in human A549 cells assessed as increase in cleaved caspase-7 expression at 20 uM after 18 hrs by Alexa Fluor-488/Hoechst 33258 staining based fluorescence microscopic method; type: functional, cell-based
A549 [26] = assay: Induction of ER stress-activated unfolded protein response pathway in human A549 cells harboring pFA-CHOP-GAL4/p-GAL4-DBD-Luc assessed as increase in CHOP trans-acting activity after 12 hrs by luciferase reporter gene assay; type: functional, cell-based
A549 [27] = assay: Growth inhibition of human A549 cells assessed as cell viability at 20 uM after 24 hrs by CCK8 assay relative to control; type: functional; conditions: A549, 24 h, read-out: Activity
A549 [28] = assay: Induction of ER stress-activated unfolded protein response pathway in human A549 cells assessed as accumulation of IRE1alpha protein level at 20 uM after 12 hrs by immunoblot analysis; type: functional, cell-based
A549 [29] = assay: Induction of ER stress-activated unfolded protein response pathway-mediated apoptosis in human A549 cells assessed as increase in cleaved caspase-7 expression at 20 uM pre-treated with stress inhibitor 4-PBA before compound addition by immunoblot analysis; type: functional, cell-based
A549 [30] = assay: Cell cycle arrest in human A549 cells assessed as accumulation at G1 phase at 20 uM after 24 hrs by propidium iodide staining based flow cytometry (reference value: 57%); type: functional
A549 [31] = assay: Induction of apoptosis in human A549 cells assessed as late apoptotic cells at 20 uM after 24 hrs by Annexn V-FITC/propidium iodide staining based flow cytometry (reference value: 3%); type: functional
A549 [32] = assay: Induction of apoptosis in human A549 cells assessed as increase in cleaved caspase-7 expression at 20 uM after 12 hrs by immunoblot analysis; type: functional, cell-based
A549 [33] = assay: Induction of apoptosis in human A549 cells assessed as increase in cleaved PARP expression at 20 uM pre-treated with pan-caspase inhibitor zVAD-FMK fopr 30 mins before compound incubation for 12 hrs by immunoblot analysis; type: functional, cell-based
A549 [34] = assay: Induction of ER stress-activated unfolded protein response pathway in human A549 cells assessed as increase in IRE1alpha-mediated splicing of XBP1 mRNA by measuring increase in 279-/261-base pair fragments at 20 uM within 3 hrs by RT-PCR analysis; type: functional, cell-based

COc1cc(/C=C/C(=O)c2cc(OC)ccc2O)cc(OC)c1
Activity (MCF-12A): Non-Toxic
viability at 10 µM (A549 [1]): 83.9%
Activity (A549 [2]): Active
Activity (A549 [3]): Active
Activity (A549 [4]): Active
Activity (A549 [5]): Active
Activity (A549 [6]): 9%
Activity (A549 [7]): 14 - 14.1%
Activity (A549 [8]): 18%
Activity (A549 [9]): inactive
Activity (A549 [10]): 26 - 26.5%
Activity (A549 [11]): Active
Activity (A549 [12]): Active
Activity (NCI-H460): Active
Activity (A549 [13]): 29.6 - 30%
Activity (MDA-MB-231): Active
Activity (A549 [14]): Active
Activity (A549 [15]): inactive
viability at 5 µM (A549 [16]): 90.1%
Activity (A549 [17]): Active
Activity (A549 [18]): Active
Activity (NCI-H1299): Active
Activity [19]: Active
Activity (A549 [20]): Active
Activity (A549 [21]): Active
Activity (A549 [22]): Active
Activity (A549 [23]): 56%
Activity (A549 [24]): Active
Activity (A549 [25]): Active
Activity (A549 [26]): Dose-dependent effect
viability at 20 µM (A549 [27]): 50.8%
Activity (A549 [28]): Active
Activity (A549 [29]): Active
Activity (A549 [30]): 29.8 - 30%
Activity (A549 [31]): 16%
Activity (A549 [32]): Active
Activity (A549 [33]): inactive
Activity (A549 [34]): Active
